Reference: patent US7321027B2, “Small technetium-99m and rhenium labeled agents and methods for imaging tumors” (President and Fellows of Harvard College, priority 2000, dated 2008)

Assays:
melanoma = conditions: 1 hour post injection; cited from earlier work
[1] = Determination of lipophilicity and pKa values by HPLC; format: physicochemical; conditions: HPLC method
Procedure: The physicochemical parameters of the rhenium complexes, i.e. lipophilicity log P, log D(pH 7.4), and pKa (Table 2) were determined using HPLC methods (Braumann, T.; Grimme, L. H. Determination of Hydrophobic Parameters for Pyridazinone Herbicides by Liquid-Liquid Partition and Reversed-Phase High-Performance Liquid Chromatography. J. Chromatogr. 1981, 206, 7-15; Stytli, C.; Theobald, A. E. Determination of Ionization Constants of Radiopharmaceuticals in Mixed Solvents by HPLC. Appl. Radiat. Isot., 1987, 38, 701-708; Johannsen, B.; Scheunemann, M.; Spies, H.; Brust, P.; Wober, J.; Syhre, R.; Pietzsch, H.-J. Technetium(V) and Rhenium(V) Complexes for 5-HT2A Serotonin Receptor Binding: Structure-Affinity Considerations. Nucl. Med. Biol., 1996, 23, 429-438; and Johannsen, B.; Berger, R.; Brust, P.; Pietzsch, H.-J; Scheunemann, M.; Seifert, S.; Spies, H.; Syhre, R. Structural Modification of Receptor-Binding Technetium-99m Complexes in Order to Improve Brain Uptake. Eur. J. Nucl. Med. 1997, 24, 316-319). […] Since log D(pH 7.4) is a composite measure of log P and pKa, the log D(PH 7.4) of Re-Compound B (1.9) is also higher than that of Re-Compound A (1.1). […] With pKa values >9 for complexes Re-Compound C and Re-Compound D, the resulting low log D(PH 7.4) values of −0.5 (Re-Compound C) and 0.7 (Re-Compound D) are not surprising, since the complexes would exist in a protonated form at pH 7.4.
Determination of Lipophilicity and pKa Values. The lipophilicity and pKa values of all complexes were determined using HPLC methods described previously (Stylli, C.; Theobald, A. E. Determination of Ionization Constants of 4 Radiopharmaceuticals in Mixed Solvents by HPLC. Appl. Radiat. Isot., 1987, 38, 701-708; Johannsen, B.; Scheunemann, M.; Spies, H.; Brust, P.; Wober, J.; Syhre, R.; Pietzsch, H.-J. Technetium(V) and Rhenium(V) Complexes for 5-HT2A Serotonin Receptor Binding: Structure-Affinity Considerations. Nucl. Med. Biol., 1996, 23, 429-438; and Johannsen, B.; Berger, R.; Brust, P.; Pietzsch, H.-J.; Scheunemann, M.; Seifert, S.; Spies, H.; Syhre, R. Structural Modification of Receptor-Binding Technetium-99m Complexes in Order to Improve Brain Uptake. Eur. J. Nucl. Med. 1997, 24, 316-319). […] The mobile phase was acetonitrile:phosphate buffer (0.01 M), 3:1, v/v, with the aqueous buffer adjusted to the desired pH between 3 and 11. The capacity factor (k′) was calculated for each determination (Braumann, T.; Grimme, L. H. Determination of Hydrophobic Parameters for Pyridazinone Herbicides by Liquid-Liquid Partition and Reversed-Phase High-Performance Liquid Chromatography. J. Chromatogr. 1981, 206, 7-15; El Tayer, N.; van der Waterbeemd, H.; Testa, B. Lipophilicity Measurements of Protonated Basic Compounds by Reversed-Phase High-Performance Liquid Chromatography. II. Procedure for the Determination of a Lipophilic Index Measured by Reversed-Phase High Performance Liquid Chromatography. J. Chromatogr. 1985, 320, 305-312; and Minick, D. J.; Frenz, J. H.; Patrick, M. A.; Brent, D. A. A Comprehensive Method for Determining Hydrophobicity Constants by Reversed-Phase High-Performance Liquid Chromatography. J. Med. Chem., 1988, 31, 1923-1933) and the partition coefficient at a given pH (D or log D) were calculated from the equation: log D=a log k′+b where the parameters a and b are predetermined using standard amines. The fitted points of inflection from the sigmoidal DHPLC/pH profiles permit calculation of the pKHPLC(Stylli, C.; Theobald, A. E. Determination of Ionization Constants of Radiopharmaceuticals in Mixed Solvents by HPLC. Appl. Radiat. Isot., 1987, 38, 701-708). The aqueous ionization constants pKa were calculated from the pKHPLC values after correction with a predetermined correction factor obtained using standard amine compounds. Log P values of the neutral complexes were estimated from the respective upper plateau of the sigmoidal log D/pH curve in the alkaline range.

σ2-receptors = target: T1, σ2-receptors (Rattus norvegicus, UniProt Q5U3Y7); assay: σ2-Receptor binding assay; conditions: σ2 vs σ1
T1 construct: Rat liver membranes were prepared from male Sprague-Dawley rat livers as previously described; from tissue; host or cells: male Sprague-Dawley rat liver membranes
T1 sequence (Q5U3Y7 1-176): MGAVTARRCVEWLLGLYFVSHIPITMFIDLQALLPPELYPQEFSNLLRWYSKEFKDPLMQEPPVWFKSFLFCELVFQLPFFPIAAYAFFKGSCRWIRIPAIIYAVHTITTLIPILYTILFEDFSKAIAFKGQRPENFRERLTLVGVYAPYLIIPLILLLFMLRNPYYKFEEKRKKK
Procedure: Receptor Binding Studies. To understand the involvement of receptor binding in the melanoma-cell uptake of these ^99mTc-complexes, we further investigated the affinity of these complexes in an established σ-receptor assay.
σ2-Receptor Binding Assay. Rat liver membranes were prepared from male Sprague-Dawley rat livers as previously described (Hellewell, S. B.; Bruce A.; Feinstein, G.; Orringer, J.; Williams, W.; Bowen, W. D. Rat Liver and Kidney Contain High Densities of σ1 and σ2 Receptors: Characterization by Ligand Binding and Photoaffinity Labeling. Eur. J. Pharmacol.-Mol. Pharmacol. Sect. 1994, 268, 9-18). […] Competition assays were performed with fifteen concentrations of the nonradioactive rhenium complexes ranging from 10^−10 to 10^−3 M and protein samples (0.15 mg membrane protein) in Tris-HCl (50 mM), pH 8.0, for 120 min at 25° C. in a 0.25-mL volume. All other manipulations and data analysis were performed as described vide supra for the σ1 receptor assay.

Row | Structure (SMILES) | melanoma uptake (melanoma) | pKa [1] | log D(pH 7.4) ([1]; pH 7.4) | greater affinity toward the σ2-receptor subtype (σ2-receptors)
1 | CCN(CC)CCNC(=O)c1ccc(CC2[N]3CC(C)(C)[S][Tc]34(#[N])[S]C(C)(C)C[N]4C2(C)C)cc1 (centres unmarked) [Compound 1] | Compound 10.4% uptake % ID/g |  |  | 
2 | CCN(CC)CCNC(=O)c1ccc(CCNC2=[SH][Tc]3(#[N])([S]2)[S]C(NCCc2ccc(C(=O)NCCN(CC)CC)cc2)=[SH]3)cc1 [Compound 4] | Compound 40.5% uptake % ID/g |  |  | 
3 | CCN(CC)CCCN1CC[S][Re]2(=[O])[S]CC[N]2C(=O)C1 (centres unmarked) [Re-Compound C, [ReOAADT]-C3—NEt2] |  | 9.2 | −0.5 | 100 fold
